Data reported in US11530317B2, “Deep eutectic solvent compositions” (SABIC GLOBAL TECHNOLOGIES B.V., priority 2017, dated 2022).
Values after ≈ are worked out from the molar mass of the structure shown. Where two headings read alike, the source gives them in different places.

Tests used:
[1] = Quantification of solubility by visual inspection for undissolved material; format: physicochemical; details: for Enhancement factor: solubility in ChCl-urea DES relative to aqueous solution; for Solubility in water: obtained in this work
Protocol: Solubility was determined through adding an amount of CB[n] n=6, 7 or 8 or x-CD (where x=α, β or γ) to 1 mL of solvent followed by vortexing and heating the mixture to 80° C. The mixture was inspected visually to determine the presence of undissolved material. The mixture was then cooled to room temperature and the mixture re-examined to determine the presence of any undissolved material.

[2] = UV/vis probing of host-guest binding in ChCl-urea DES
Protocol: Methylviologen dichloride (2.0 mg, […], 1 eq.) was dissolved in ChCl:urea (1 mL) by vortexing and heating to 60° C. The methylviologen radical was formed by addition of a significant excess of reducing agent, sodium hydrosulfite, approx. 20 molar equivalents. To this solution CB[7] (9.0 mg, […], 1 eq.) was added and dissolved through stirring at 60° C. A sample of this solution (0.1 mL) was added to ChCl-urea (1 mL) and measured by UV/vis.
Methylviologen dichloride (2.0 mg, […], 1 eq.) was dissolved in ChCl:urea (1 mL) by vortexing and heating to 60° C. The methylviologen radical was formed by addition of a significant excess of reducing agent, sodium hydrosulfite, approx. 20 molar equivalents. To this solution CB[8] (10.1 mg, […], 1 eq. or 20.2 mg, 15.6 mmol, 2 eq.) was added and dissolved through stirring at 60° C. 0.1 ml of this solution were added to 1 ml of ChCl-urea and measured by UV/vis.
To probe the binding of γ-CD to MV^.+ a high concentration of MV^.+ was required on account of the lower binding constants of CDs compared to CB[n]. A solution of MV^.+ (15 mg/mL) was prepared (as described for CB[7] above) and to this γ-CD (170 mg, 2 equivalents) was added.

[3] = Long term UV/vis measurement of MV^+. in ChCl-urea DES exposed to air; format: physicochemical
Protocol: MV^2+ 2Cl^− (1 mg, 0.0039 mmol) was added to ChCl-urea DES (10 mL) and dissolved by heating to 80° C. for 30 min to give a 0.39 mM solution. The solution was then heated to 130° C. for 2 h during which time it had turned blue. A portion (1.5 mL) of the resulting blue solution was removed, placed in a cuvette and a UV/vis spectrum was recorded.
Spectra were recorded across a 100 h period in an open cuvette.
The solution was not degassed or covered in any way nor was any attempt to keep O2 out made.

[4] = Purging of MV^+. solutions (DES or water) with air, monitored by UV/vis at 609 nm; format: physicochemical
[5] = Photochemical switching of MV in DES (solar light simulator, then air purge); format: physicochemical; details: photogenerated radical in DES, purging with air
Protocol: DES MV^2+ solution (1.5 mL) in a quartz cuvette (1 cm path length, Hellma) was placed in a water bath held at 25° C. and irradiated by a solar light simulator (Newport Oriel, 100 mW cm^−2) equipped with an air mass 1.5 global filter (AM 1.5 G). IR irradiation was filtered with a water filter (10 cm path length). Samples were thermostatted at 25° C.
Stock solutions of MV^2+ in each of the three DES were prepared as follows: MV^2+ 2Cl^− (10 mg, 0.04 mmol) was added each individual DES (ChCl-urea, ChCl-glycerol and ChCl-ethylene glycol) (10 mL) separately and dissolved by heating to 80° C. for 30 min to give a colorless solution.
MV^2+ in DES (1.5 mL) was transferred to a quartz cuvette and placed in a water bath held at 25° C. in front of a solar light simulator. The sample was removed from the simulator and UV/vis spectra recorded at various time intervals to monitor the formation of MV^+..
The resultant blue MV^+. solutions were then purged with air (30 mL min^−1) using a mass flow controller (Brooks). UV/vis spectra were recorded at time intervals during the purging to monitor the disappearance of the MV^+. species.

[6] = Cyclic voltammetry cycling stability of MV in DES in air; format: physicochemical; details: DES (ChCl-urea, ChCl-ethylene glycol, ChCl-glycerol), no degassing
Protocol: Electrochemical measurements were performed in air at 40° C. using a PalmSens EmStat potentiostat. A three-electrode cell was used, equipped with a glassy carbon working electrode (3 mm diameter, BASi), a Ag/AgCl reference electrode (BASi) and a platinum mesh counter electrode (Sigma-Aldrich). The working electrode was cleaned before experiments by mechanically polishing in alumina (Buehler, Micropolish, 1 μm) on a polishing cloth (Buehler, Microcloth).
Cyclic voltammetry (CV) was recorded at 0.1 V s^−1 scan rate and 5.0 mM MV^2+ 2Cl^− concentration. FcMeOH (5 mM) was used as an internal reference. Analyte solutions were prepared by heating the respective DES with MV^2+ 2Cl^− and FcMeOH to 80° C. for 30 min.
None of the solutions were degassed before measurement nor was any attempt made to exclude oxygen or air.

[7] = Solubility of methylviologen dichloride in ChCl-urea; format: physicochemical; details: ChCl-urea DES
Text: However, it should be noted that other anions, such as [PF6]^− and I^− were also found to be soluble and may also be used.

[8] = values taken from Sabadini et al.; cited from earlier work
[9] = ChCl-urea DES, room temperature

DES solubility (maximum solubility) [1, 9] | maximum solubility ([1]; ChCl-TsOH DES) [mg/mL] | maximum solubility ([1]; ChCl-urea DES) [mg/mL] | maximum solubility ([1]; H2O) [mg/mL] | maximum solubility ([1]; HCl (3M)) [mg/mL] | maximum solubility ([1]; NaCl (0.1M)) [mg/mL] | maximum solubility ([1]; Phosphate buffer (pH = 7.0)) [mg/mL] | Enhancement factor [1] | Solubility in water ([1]; water) [mg/mL] | host-guest binding with MV^.+ by UV/vis [2] | Molecule | other results
1.0 mg/mL | 1.0 | 1.0 | <0.1 | 15.0 | 4.6 | 17.4 | 10 | <0.1 |  | O=C1N2CN3C(=O)N4CN5C(=O)N6CN7C(=O)N8CN9C(=O)N%10CN%11C(=O)N%12CN1C1C2N2CN%13C(=O)N(CN%14C(=O)N(CN%15C(=O)N(CN%16C(=O)N(CN%17C(=O)N(CN1C2=O)C%12C%11%17)C%10C9%16)C8C7%15)C6C5%14)C4C3%13 (stereo not drawn) [CB[6]] | 
17 mg/mL | 18.0 | 17.0 | 4.4 | 100 | 14.8 | 19.8 | 3.9 | 4.4 (≈ 3.78 mM) | binding of MV^.+ is occurring | O=C1N2CN3C(=O)N4CN5C(=O)N6CN7C(=O)N8CN9C(=O)N%10CN%11C(=O)N%12CN%13C(=O)N%14CN1C1C2N2CN%15C(=O)N(CN%16C(=O)N(CN%17C(=O)N(CN%18C(=O)N(CN%19C(=O)N(CN%20C(=O)N(CN1C2=O)C%14C%13%20)C%12C%11%19)C%10C9%18)C8C7%17)C6C5%16)C4C3%15 (stereo not drawn) [CB[7]] | maximum solubility ([1]; ChCl-urea (1:2), room temperature): 15.0 mg cm^−3; maximum solubility in water ([1]; water): 4.4 mg cm^−3
>1000 mg/mL |  |  |  |  |  |  | >55 |  |  | OC[C@H]1O[C@@H]2O[C@H]3[C@H](O)[C@@H](O)[C@@H](O[C@H]4[C@H](O)[C@@H](O)[C@@H](O[C@H]5[C@H](O)[C@@H](O)[C@@H](O[C@H]6[C@H](O)[C@@H](O)[C@@H](O[C@H]7[C@H](O)[C@@H](O)[C@@H](O[C@H]8[C@H](O)[C@@H](O)[C@@H](O[C@H]1[C@H](O)[C@H]2O)O[C@@H]8CO)O[C@@H]7CO)O[C@@H]6CO)O[C@@H]5CO)O[C@@H]4CO)O[C@@H]3CO [β-CD] | CD content of the solution at that solubility ([1]; ChCl-urea DES): ~50 wt %

More lines, now with the values behind:

Molecule | DES solubility (maximum solubility) [1, 9] | maximum solubility ([1]; ChCl-TsOH DES) [mg/mL] | maximum solubility ([1]; ChCl-urea DES) [mg/mL] | maximum solubility ([1]; H2O) [mg/mL] | maximum solubility ([1]; HCl (3M)) [mg/mL] | maximum solubility ([1]; NaCl (0.1M)) [mg/mL] | maximum solubility ([1]; Phosphate buffer (pH = 7.0)) [mg/mL] | Enhancement factor [1] | Solubility in water ([1]; water) [mg/mL] | host-guest binding with MV^.+ by UV/vis [2] | other results
O=C1N2CN3C(=O)N4CN5C(=O)N6CN7C(=O)N8CN9C(=O)N%10CN1C1C2N2CN%11C(=O)N(CN%12C(=O)N(CN%13C(=O)N(CN%14C(=O)N(CN1C2=O)C%10C9%14)C8C7%13)C6C5%12)C4C3%11 (stereo not drawn) [CB[5]] | approx. 25 mg/mL |  |  |  |  |  |  |  |  |  | 
C[n+]1ccc(-c2cc[n+](C)cc2)cc1.[Cl-].[Cl-] [MV, N,N′-dimethyl-4,4′-bipyridinium dichloride] |  |  |  |  |  |  |  |  |  |  | change in absorbance at 609 nm ([3]; ChCl-urea DES, exposed to air, 100 h period): no change in absorbance at 609 nm; time solutions remain blue ([3]; DES solutions prepared and stored in air): > 6 months; forecast lifetime ([3]; in DES, in air): > 6 months; radical lifetime upon purging with air ([4]; ChCl-ethylene glycol DES (36 cP)): shortest radical lifetime; radical lifetime upon purging with air ([4]; ChCl-glycerol DES (376 cP)): 900 min; radical lifetime upon purging with air ([4]; ChCl-urea DES (632 cP)): 400 min; time to complete quenching ([4]; aqueous solution, purging with air 0.1 mL min^−1): less than 4 min; persistence of radical species ([4]; in DES, purging with air 30 mL min^−1): 2 to 15 h; time to revert to colourless [5]: ≤ 150 s; electrochemical cycling stability [6]: ≥ 100 cycles; solubility in ChCl-urea [7]: soluble
OC[C@H]1O[C@@H]2O[C@H]3[C@H](O)[C@@H](O)[C@@H](O[C@H]4[C@H](O)[C@@H](O)[C@@H](O[C@H]5[C@H](O)[C@@H](O)[C@@H](O[C@H]6[C@H](O)[C@@H](O)[C@@H](O[C@H]7[C@H](O)[C@@H](O)[C@@H](O[C@H]1[C@H](O)[C@H]2O)O[C@@H]7CO)O[C@@H]6CO)O[C@@H]5CO)O[C@@H]4CO)O[C@@H]3CO [α-CD] | >500 mg/mL |  |  |  |  |  |  | >3.5 |  |  | Solubility in water [8]: 129.5 mg/mL (≈ 133 mM)
OC[C@H]1O[C@@H]2O[C@H]3[C@H](O)[C@@H](O)[C@@H](O[C@H]4[C@H](O)[C@@H](O)[C@@H](O[C@H]5[C@H](O)[C@@H](O)[C@@H](O[C@H]6[C@H](O)[C@@H](O)[C@@H](O[C@H]7[C@H](O)[C@@H](O)[C@@H](O[C@H]8[C@H](O)[C@@H](O)[C@@H](O[C@H]9[C@H](O)[C@@H](O)[C@@H](O[C@H]1[C@H](O)[C@H]2O)O[C@@H]9CO)O[C@@H]8CO)O[C@@H]7CO)O[C@@H]6CO)O[C@@H]5CO)O[C@@H]4CO)O[C@@H]3CO [γ-CD] | >1000 mg/mL |  |  |  |  |  |  | >4 |  | binding behaviour similar to the CB[8] system occurred | Solubility in water [8]: 249.2 mg/mL (≈ 192 mM); CD content of the solution at that solubility ([1]; ChCl-urea DES): ~50 wt %
Cucurbit[8]uril [CB[8]] | 2 mg/mL | 3.1 | 2.0 | <0.2 | 1.8 | 0.1 | 0.3 | 10 | <0.2 | formation of a 2:1 complex | 
